The nature of data set [1]: Hygroscopicity of the polymorphous forms. Format: physicochemical. The note with it: absorb water in a reversible way under suitable pressure and ambient humidity. From the text: Both the forms δ and ε of the rifaximin are hygroscopic, they absorb water in a reversible way during the time in the presence of suitable conditions of pressure and humidity in the ambient and are susceptible of transformation to other forms.

A further data set can be described thus: in vivo. More on the design: species or system Beagle female dogs. Conditions: female, Beagle, dog, po, 100 mg/kg. On the procedure:
Eight pure-bred Beagle females dogs having 20 weeks of age and weighing between 5.0 and 7.5 kg have been divided into two groups of four.
Each sample has been transferred into a tube containing heparin as anticoagulant and has been centrifuged; the plasma has been divided into two aliquots, each of 500 μl, and has been frozen at −20° C.
Tmax=time at which the Cmax is reached;
AUC=area under the concentration-time curve calculated through the linear trapezoidal rule.

SMILES strings stand for the structures.

In general, Cmax refers to the highest concentration seen after dosing. In the case of `CO[C@H]1/C=C/O[C@@]2(C)Oc3c(C)c(O)c4c(O)c(c5c(nc6cc(C)ccn65)c4c3C2=O)NC(=O)/C(C)=C\C=C\[C@H](C)[C@H](O)[C@@H](C)[C@@H](O)[C@@H](C)[C@H](OC(C)=O)[C@@H]1C` [Polymorph δ, rifaximin], the “hygroscopicity (in words)” value in data set [1] is “hygroscopic”. Further, in the data set “in vivo”, the “AUC0-24 Mean” value came out at 801 ng·h/mL, the “Cmax Mean” value was 308.31 ng/mL and the “Tmax Mean” value came to 2 h. In “in vivo” (Cmax), this molecule displayed a Cmax of 308 ng/mL.
As a reminder, the Tmax is the time from dosing to the highest level. On to `CO[C@H]1/C=C/O[C@@]2(C)Oc3c(C)c(O)c4c(O)c(c5c(nc6cc(C)ccn65)c4c3C2=O)NC(=O)/C(C)=C\C=C\[C@H](C)[C@H](O)[C@@H](C)[C@@H](O)[C@@H](C)[C@H](OC(C)=O)[C@@H]1C` [Polymorph ε, rifaximin], for which the “hygroscopicity (in words)” value in data set [1] was “hygroscopic”. In addition, in “in vivo”, the “AUC0-24 Mean” value is 42 ng·h/mL, the “Cmax Mean” value stood at 6.86 ng/mL and the Tmax is 4 h.

The values above are taken from US20200277301A1 (ALFASIGMA S.P.A., priority 2005, published 2020).
